Source: PubChem BioAssay (NCI)
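The compound was tested at five concentrations on cells cultured in 96-well plates, with a 48-hour exposure period. Here, GI50 denotes the concentration required for 50% inhibition of growth. At the TGI there is no net growth.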

Experiments:
Assay in all cases: DTP human tumour cell line panel, 48 h
786-0 renal = system: 786-0 renal
A498 renal = system: A498 renal
A549 NSCLC = system: A549 NSCLC
ACHN renal = system: ACHN renal
BT-549 breast = system: BT-549 breast
CAKI-1 renal = system: CAKI-1 renal
COLO 205 colon = system: COLO 205 colon
DU-145 prostate = system: DU-145 prostate
EKVX NSCLC = system: EKVX NSCLC
HCC-2998 colon = system: HCC-2998 colon
HCT-116 colon = system: HCT-116 colon
HCT-15 colon = system: HCT-15 colon
HL-60(TB) leukemia = system: HL-60(TB) leukemia
HOP-62 NSCLC = system: HOP-62 NSCLC
HOP-92 NSCLC = system: HOP-92 NSCLC
HS 578T breast = system: HS 578T breast
HT29 colon = system: HT29 colon
IGROV1 ovarian = system: IGROV1 ovarian
K-562 leukemia = system: K-562 leukemia
KM12 colon = system: KM12 colon
LOX IMVI melanoma = system: LOX IMVI melanoma
M14 melanoma = system: M14 melanoma
MALME-3M melanoma = system: MALME-3M melanoma
MCF7 breast = system: MCF7 breast
MDA-MB-231 breast = system: MDA-MB-231 breast
MDA-MB-435 = system: MDA-MB-435
MOLT-4 leukemia = system: MOLT-4 leukemia
NCI-H226 lung = system: NCI-H226 lung
NCI-H460 lung = system: NCI-H460 lung
NCI-H522 lung = system: NCI-H522 lung
NCI/ADR-RES ovarian = system: NCI/ADR-RES ovarian
OVCAR-3 ovarian = system: OVCAR-3 ovarian
OVCAR-4 ovarian = system: OVCAR-4 ovarian
OVCAR-5 ovarian = system: OVCAR-5 ovarian
OVCAR-8 ovarian = system: OVCAR-8 ovarian
PC-3 prostate = system: PC-3 prostate
RPMI-8226 leukemia = system: RPMI-8226 leukemia
RXF 393 renal = system: RXF 393 renal
SF-268 CNS = system: SF-268 CNS
SF-295 CNS = system: SF-295 CNS
SF-539 CNS = system: SF-539 CNS
SK-MEL-2 melanoma = system: SK-MEL-2 melanoma
SK-MEL-28 melanoma = system: SK-MEL-28 melanoma
SK-MEL-5 melanoma = system: SK-MEL-5 melanoma
SK-OV-3 ovarian = system: SK-OV-3 ovarian
SN12C renal = system: SN12C renal
SNB-19 CNS = system: SNB-19 CNS
SNB-75 CNS = system: SNB-75 CNS
SR leukemia = system: SR leukemia
SW-620 colon = system: SW-620 colon
T-47D breast = system: T-47D breast
TK-10 renal = system: TK-10 renal
U251 CNS = system: U251 CNS
UACC-257 melanoma = system: UACC-257 melanoma
UACC-62 melanoma = system: UACC-62 melanoma
UO-31 renal = system: UO-31 renal

Work on CCn1c2ccc(/C=N/OCCCN(C)C)cc2c2cc(/C=N/OCCCN(C)C)ccc21 yielded a GI50 (786-0 renal) of 1.55 µM, a TGI (786-0 renal) of 3.2 µM and a GI50 (A498 renal) of 4.45 µM. The TGI (A498 renal) was 17.2 µM, the GI50 (A549 NSCLC) was 1.59 µM and the TGI (A549 NSCLC) was 3.01 µM. The GI50 (ACHN renal) was 1.72 µM, the TGI (ACHN renal) was 3.13 µM and the GI50 (BT-549 breast) was 1.71 µM. For the same compound, the TGI (BT-549 breast) was 3.22 µM, the GI50 (CAKI-1 renal) was 1.43 µM and the TGI (CAKI-1 renal) was 2.74 µM. For the same compound, the GI50 (COLO 205 colon) was 1.61 µM, the TGI (COLO 205 colon) was 3.05 µM and the GI50 (DU-145 prostate) was 3.46 µM. The TGI (DU-145 prostate) was 12.3 µM, the GI50 (EKVX NSCLC) was 3.26 µM and the TGI (EKVX NSCLC) was 13.7 µM. It also gave a GI50 (HCC-2998 colon) of 1.51 µM, a TGI (HCC-2998 colon) of 2.95 µM and a GI50 (HCT-116 colon) of 1.27 µM. The TGI (HCT-116 colon) was 2.7 µM, the GI50 (HCT-15 colon) was 1.75 µM and the TGI (HCT-15 colon) was 3.96 µM. The GI50 (HL-60(TB) leukemia) was 1.68 µM, the TGI (HL-60(TB) leukemia) was 3.95 µM and the GI50 (HOP-62 NSCLC) was 4.64 µM. The TGI (HOP-62 NSCLC) was 18.9 µM, the GI50 (HOP-92 NSCLC) was 1.7 µM and the TGI (HOP-92 NSCLC) was 8.22 µM. It also gave a GI50 (HS 578T breast) of 2.52 µM, a TGI (HS 578T breast) of 7.95 µM and a GI50 (HT29 colon) of 1.52 µM. It also gave a TGI (HT29 colon) of 3.51 µM, a GI50 (IGROV1 ovarian) of 3.08 µM and a TGI (IGROV1 ovarian) of 10.3 µM. It also gave a GI50 (K-562 leukemia) of 1.49 µM, a TGI (K-562 leukemia) of 3.63 µM and a GI50 (KM12 colon) of 3.24 µM. It also gave a TGI (KM12 colon) of 13.7 µM, a GI50 (LOX IMVI melanoma) of 1.5 µM and a TGI (LOX IMVI melanoma) of 2.94 µM. The GI50 (M14 melanoma) was 1.7 µM, the TGI (M14 melanoma) was 3.23 µM and the GI50 (MALME-3M melanoma) was 1.8 µM. The TGI (MALME-3M melanoma) was 3.4 µM, the GI50 (MCF7 breast) was 1.49 µM and the TGI (MCF7 breast) was 3.07 µM. For the same compound, the GI50 (MDA-MB-231 breast) was 2.23 µM, the TGI (MDA-MB-231 breast) was 5.34 µM and the GI50 (MDA-MB-435) was 1.48 µM. For the same compound, the TGI (MDA-MB-435) was 2.84 µM, the GI50 (MOLT-4 leukemia) was 1.92 µM and the TGI (MOLT-4 leukemia) was 6.21 µM. It also gave a GI50 (NCI-H226 lung) of 10 µM, a TGI (NCI-H226 lung) of 25.2 µM and a GI50 (NCI-H460 lung) of 2.02 µM. For the same compound, the TGI (NCI-H460 lung) was 4.36 µM, the GI50 (NCI-H522 lung) was 1.73 µM and the TGI (NCI-H522 lung) was 3.43 µM. It also gave a GI50 (NCI/ADR-RES ovarian) of 1.97 µM, a TGI (NCI/ADR-RES ovarian) of 4.89 µM and a GI50 (OVCAR-3 ovarian) of 2.08 µM. The TGI (OVCAR-3 ovarian) was 5.28 µM, the GI50 (OVCAR-4 ovarian) was 1.73 µM and the TGI (OVCAR-4 ovarian) was 3.35 µM. It also gave a GI50 (OVCAR-5 ovarian) of 2.88 µM, a TGI (OVCAR-5 ovarian) of 11.5 µM and a GI50 (OVCAR-8 ovarian) of 2.07 µM. The TGI (OVCAR-8 ovarian) was 4.88 µM, the GI50 (PC-3 prostate) was 2.51 µM and the TGI (PC-3 prostate) was 10.9 µM. For the same compound, the GI50 (RPMI-8226 leukemia) was 1.77 µM, the TGI (RPMI-8226 leukemia) was 4.08 µM and the GI50 (RXF 393 renal) was 1.18 µM. The TGI (RXF 393 renal) was 2.49 µM, the GI50 (SF-268 CNS) was 3.69 µM and the TGI (SF-268 CNS) was 14.2 µM. The GI50 (SF-295 CNS) was 1.94 µM, the TGI (SF-295 CNS) was 3.82 µM and the GI50 (SF-539 CNS) was 1.62 µM. For the same compound, the TGI (SF-539 CNS) was 2.99 µM, the GI50 (SK-MEL-2 melanoma) was 15.7 µM and the TGI (SK-MEL-2 melanoma) was 30.3 µM. It also gave a GI50 (SK-MEL-28 melanoma) of 1.65 µM, a TGI (SK-MEL-28 melanoma) of 3.18 µM and a GI50 (SK-MEL-5 melanoma) of 1.8 µM. It also gave a TGI (SK-MEL-5 melanoma) of 3.23 µM, a GI50 (SK-OV-3 ovarian) of 16.4 µM and a TGI (SK-OV-3 ovarian) of 31.2 µM. For the same compound, the GI50 (SN12C renal) was 9.08 µM, the TGI (SN12C renal) was 21.5 µM and the GI50 (SNB-19 CNS) was 3.65 µM. It also gave a TGI (SNB-19 CNS) of 14 µM, a GI50 (SNB-75 CNS) of 1.68 µM and a TGI (SNB-75 CNS) of 3.93 µM. The GI50 (SR leukemia) was 1.83 µM, the TGI (SR leukemia) was 4.38 µM and the GI50 (SW-620 colon) was 1.81 µM. It also gave a TGI (SW-620 colon) of 3.78 µM, a GI50 (T-47D breast) of 1.8 µM and a TGI (T-47D breast) of 3.82 µM. It also gave a GI50 (TK-10 renal) of 14.1 µM, a TGI (TK-10 renal) of 28.2 µM and a GI50 (U251 CNS) of 1.62 µM. The TGI (U251 CNS) was 3.14 µM, the GI50 (UACC-257 melanoma) was 1.68 µM and the TGI (UACC-257 melanoma) was 3.09 µM. The GI50 (UACC-62 melanoma) was 1.92 µM, the TGI (UACC-62 melanoma) was 3.87 µM and the GI50 (UO-31 renal) was 1.5 µM. For the same compound, the TGI (UO-31 renal) was 3.24 µM.
